Laboratory results reported in ChEMBL document CHEMBL1201862, “PubChem BioAssay data set” (2004).
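How tested: cells in 96-well plates exposed to compound for 48 hours at five concentrations. The concentration for 50% growth inhibition is given as GI50.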 Calls of active or inactive are those of the source. Rule as the data show it: active = GI50 up to about 1.1 µM and inactive = higher.

What was measured:
Assay in all cases: NCI anticancer screen, dose series, 48 h
K562 = test system: K562
M14 = test system: M14
UACC-62 = test system: UACC-62
ACHN = test system: ACHN
HL-60 = test system: HL-60
U-251 = test system: U-251
SF-268 = test system: SF-268
786-0 = test system: 786-0
NCI-H460 = test system: NCI-H460
HCC 2998 = test system: HCC 2998
OVCAR-3 = test system: OVCAR-3
NCI-H23 = test system: NCI-H23
SN12C = test system: SN12C
CAKI-1 = test system: CAKI-1
MCF7 = test system: MCF7
DU-145 = test system: DU-145
OVCAR-5 = test system: OVCAR-5
SF-539 = test system: SF-539
EKVX = test system: EKVX

SMILES	GI50 (K562)	GI50 (M14)	GI50 (UACC-62)	GI50 (ACHN)	GI50 (HL-60)	GI50 (U-251)	GI50 (SF-268)	GI50 (786-0)	GI50 (NCI-H460)	GI50 (HCC 2998)	GI50 (OVCAR-3)	GI50 (NCI-H23)	GI50 (SN12C)	GI50 (CAKI-1)	GI50 (MCF7)	GI50 (DU-145)	GI50 (OVCAR-5)	GI50 (SF-539)	GI50 (EKVX)
Cc1cccc2c1nc1n2C(=O)c2ccccc2-1	> 100 µM (inactive)	> 100 µM (inactive)	> 100 µM (inactive)	> 100 µM (inactive)	> 100 µM (inactive)	> 100 µM (inactive)	> 100 µM (inactive)	> 100 µM (inactive)	> 100 µM (inactive)	> 100 µM (inactive)	> 100 µM (inactive)	> 100 µM (inactive)	> 100 µM (inactive)	> 100 µM (inactive)	> 100 µM (inactive)	> 100 µM (inactive)	> 100 µM (inactive)	> 100 µM (inactive)	> 100 µM (inactive)
O=C(O)c1c(-c2c3ccc(=O)cc-3oc3cc(O)ccc23)cc2ccccc2c1-c1ccccc1	4.51 µM (inactive)	> 100 µM (inactive)	> 100 µM (inactive)	> 100 µM (inactive)	> 74.6 µM (inactive)	> 100 µM (inactive)	> 100 µM (inactive)	> 100 µM (inactive)	> 66.4 µM (inactive)	> 34 µM (inactive)	> 100 µM (inactive)	> 100 µM (inactive)	> 100 µM (inactive)	> 100 µM (inactive)	> 100 µM (inactive)	> 100 µM (inactive)	> 100 µM (inactive)	> 100 µM (inactive)	> 100 µM (inactive)
O=S(=O)(CC(Cl)c1ccccc1)c1nc2ccccc2s1 (stereo not drawn)	2.81 µM (inactive)	2.29 µM (inactive)	15.1 µM (inactive)	15.5 µM (inactive)	2.11 µM (inactive)	12.5 µM (inactive)	13.6 µM (inactive)	6.95 µM (inactive)	19.7 µM (inactive)	17.5 µM (inactive)	8.53 µM (inactive)	8.38 µM (inactive)	10.2 µM (inactive)	2.24 µM (inactive)	7.48 µM (inactive)	16.5 µM (inactive)	13.7 µM (inactive)	10.2 µM (inactive)	15.8 µM (inactive)
O=C1C=CC(=O)c2c(O)c(N3CCN(c4ccccn4)CC3)cc(O)c21	4.38 µM (inactive)	3.29 µM (inactive)	5.9 µM (inactive)	6.89 µM (inactive)	3.01 µM (inactive)	5.64 µM (inactive)	11.9 µM (inactive)	7.24 µM (inactive)	3.24 µM (inactive)	8.73 µM (inactive)	4.18 µM (inactive)	3.4 µM (inactive)	7.6 µM (inactive)	8 µM (inactive)	3.11 µM (inactive)	12.6 µM (inactive)	46.5 µM (inactive)	4.85 µM (inactive)	23.9 µM (inactive)
O=c1c(-c2nc3ccccc3c3ccccc3c2=O)nc2ccccc2c2ccccc12	32.9 µM (inactive)	35.2 µM (inactive)	30.2 µM (inactive)	36.1 µM (inactive)	20 µM (inactive)	22.2 µM (inactive)	41 µM (inactive)	36 µM (inactive)	41.3 µM (inactive)	21.9 µM (inactive)	28.4 µM (inactive)	40 µM (inactive)	28.6 µM (inactive)	38.9 µM (inactive)	38 µM (inactive)	80.9 µM (inactive)	80.4 µM (inactive)	24.5 µM (inactive)	50.1 µM (inactive)
Cc1ccc2nc(CN(CCO)CCO)cc(=O)n2c1	> 100 µM (inactive)	> 100 µM (inactive)	> 100 µM (inactive)	> 100 µM (inactive)	> 100 µM (inactive)	> 100 µM (inactive)	> 100 µM (inactive)	> 100 µM (inactive)	> 100 µM (inactive)	> 100 µM (inactive)	> 100 µM (inactive)	> 100 µM (inactive)	> 100 µM (inactive)	> 100 µM (inactive)	> 100 µM (inactive)	> 100 µM (inactive)	> 100 µM (inactive)	> 100 µM (inactive)	> 100 µM (inactive)
N#Cc1nn(C(N)=O)c(N)c1C#N	> 100 µM (inactive)	> 100 µM (inactive)	> 100 µM (inactive)	> 100 µM (inactive)	> 100 µM (inactive)	> 100 µM (inactive)	> 100 µM (inactive)	> 100 µM (inactive)	> 100 µM (inactive)	> 100 µM (inactive)	> 100 µM (inactive)	> 100 µM (inactive)	> 100 µM (inactive)	> 100 µM (inactive)	> 100 µM (inactive)	> 100 µM (inactive)	> 100 µM (inactive)	> 100 µM (inactive)	> 100 µM (inactive)
C=CCC1(OC(C)=O)C2OC(=O)C1(O)OCC2O (stereo not drawn)	> 100 µM (inactive)	> 100 µM (inactive)	> 59.3 µM (inactive)	> 100 µM (inactive)	> 100 µM (inactive)	> 100 µM (inactive)	> 100 µM (inactive)	> 100 µM (inactive)	> 100 µM (inactive)	> 100 µM (inactive)	> 100 µM (inactive)	> 100 µM (inactive)	> 100 µM (inactive)	> 100 µM (inactive)	> 100 µM (inactive)	> 100 µM (inactive)	> 100 µM (inactive)	> 100 µM (inactive)	> 100 µM (inactive)
COc1cc(/C=C2\Sc3scc(-c4cccc([N+](=O)[O-])c4)[n+]3C2=O)cc(OC)c1OC	4.54 µM (inactive)	11.7 µM (inactive)	11.3 µM (inactive)	14.9 µM (inactive)	36.7 µM (inactive)	11.6 µM (inactive)	11.8 µM (inactive)	10.4 µM (inactive)	11 µM (inactive)	14.5 µM (inactive)	15.8 µM (inactive)	15.1 µM (inactive)	18.1 µM (inactive)	5.98 µM (inactive)	4.15 µM (inactive)	15.2 µM (inactive)	20.8 µM (inactive)	8.89 µM (inactive)	12.4 µM (inactive)
COc1cc(C2SCC(=O)N2c2ccc(-c3ccc(-n4c(-c5ccccc5)nc5ccccc5c4=O)cc3)cc2)ccc1O (stereo not drawn)	46.7 µM (inactive)	> 100 µM (inactive)	21.8 µM (inactive)	> 100 µM (inactive)	65.3 µM (inactive)	44.2 µM (inactive)	32.7 µM (inactive)	29.6 µM (inactive)	> 100 µM (inactive)	82.2 µM (inactive)	61.5 µM (inactive)	> 100 µM (inactive)	> 100 µM (inactive)	> 100 µM (inactive)	59.4 µM (inactive)	> 100 µM (inactive)	48.3 µM (inactive)	54.7 µM (inactive)	> 100 µM (inactive)
COC1(OC)C2(Cl)C(Cl)=C(Cl)C1(Cl)C1c3ccc(C(C)=O)c4cccc(c34)C12 (stereo not drawn)	6.38 µM (inactive)	11.9 µM (inactive)	23.5 µM (inactive)	19 µM (inactive)	4.42 µM (inactive)	30.3 µM (inactive)	61.1 µM (inactive)	45.7 µM (inactive)	14.5 µM (inactive)	10.2 µM (inactive)	26.3 µM (inactive)	7.16 µM (inactive)	10.6 µM (inactive)	> 37.4 µM (inactive)	5.5 µM (inactive)	26.2 µM (inactive)	28.6 µM (inactive)	64 µM (inactive)	41.6 µM (inactive)
O=C(NC(Nc1ccc(F)cc1)(C(F)(F)F)C(F)(F)F)C(C(F)(F)F)C(F)(F)F	0.401 µM (active)	0.402 µM (active)	0.199 µM (active)	1.71 µM (inactive)	1.04 µM (active)	57.4 µM (inactive)	49.8 µM (inactive)	> 54.1 µM (inactive)	7.98 µM (inactive)	12 µM (inactive)	44.3 µM (inactive)	18.1 µM (inactive)	50.2 µM (inactive)	> 54.7 µM (inactive)	16.7 µM (inactive)	9.93 µM (inactive)	> 96.6 µM (inactive)	21.4 µM (inactive)	24.7 µM (inactive)
CC1OC(OC2C[C@](O)(C(=O)CBr)Cc3c(O)c4c(c(O)c32)C(=O)c2ccccc2C4=O)C(F)C(O)C1O (stereo partly drawn)	2.56 µM (inactive)	7.14 µM (inactive)	10.8 µM (inactive)	1.53 µM (inactive)	0.838 µM (active)	5.83 µM (inactive)	13.5 µM (inactive)	3.66 µM (inactive)	0.783 µM (active)	36.3 µM (inactive)	13.9 µM (inactive)	5.58 µM (inactive)	6.92 µM (inactive)	2.71 µM (inactive)	1.19 µM (inactive)	5.28 µM (inactive)	13.5 µM (inactive)	4.54 µM (inactive)	46.6 µM (inactive)
Cc1cccc2c1C(=O)C(C1OC(=O)c3ccccc31)C2 (stereo not drawn)	> 100 µM (inactive)	–	45.7 µM (inactive)	> 100 µM (inactive)	> 100 µM (inactive)	61 µM (inactive)	79.6 µM (inactive)	> 100 µM (inactive)	> 100 µM (inactive)	> 100 µM (inactive)	> 100 µM (inactive)	> 100 µM (inactive)	> 100 µM (inactive)	> 100 µM (inactive)	> 100 µM (inactive)	> 100 µM (inactive)	> 100 µM (inactive)	> 100 µM (inactive)	> 100 µM (inactive)
NC(=O)NC(=O)c1cccc(NC(=O)CCl)c1	0.714 µM (active)	–	0.687 µM (active)	2.56 µM (inactive)	0.569 µM (active)	0.975 µM (active)	1.91 µM (inactive)	1.06 µM (active)	1.5 µM (inactive)	0.764 µM (active)	0.223 µM (active)	0.953 µM (active)	1.43 µM (inactive)	1.39 µM (inactive)	0.989 µM (active)	1.36 µM (inactive)	1.65 µM (inactive)	0.655 µM (active)	7.01 µM (inactive)
